Series [1] concerns human lung cancer cells (A549). Briefly: MTT antiproliferative assay, A549. Conditions: Homo sapiens, A549, 72 h. Format: cell-based. As for the experimental part:
(§1) Human lung cancer cell (A549,), human umbilical vein endothelial cells (HUVECs,), human colon cancer cell lines (HCT-15), human breast cancer cells (MCF-7), human liver cancer cells (HepG2), human pancreatic cancer cells (BxPC-3), and human hepatic cell line (L-02) were obtained from the Sichuan University. A549, HUVECs, and L-02 were cultured in DMEM medium (high glucose, HyClone, GE Healthcare, Sydney, Australia). Human colon cancer cell lines HCT-15, human pancreatic cancer cells […] BxPC-3 were cultured in RPMI-1640. Human breast cancer cells MCF-7 and human liver cancer cells HepG2 were cultured in MEM medium. All the mediums, including 10% fetal bovine serum (FBS, HyClone, GE Healthcare, Sydney, Australia) and 1% ampicillin/streptomycin, were used to culture the above cells at 37 °C in a humidified atmosphere (5% CO2 and 95% air).
(§2) The antiproliferative activity of the title compounds was determined using the MTT (3-(4,5-dimethylthiazol-2-yl)-2,5-diphenyltetrazolium bromide, Sigma-Aldrich, Saint Louis, MO, USA) assay on different cells. Cells lines were seeded into 96-well plates at a density of 2000 to 6000 cells/well. DMSO was used to dissolve the test compounds, and TET was used as a positive control. After 24 h, the test compounds were added at different concentrations (0.625, 1.25, 2.5, 5, 10, and 20 μM) and incubated at 37 °C for 72 h. MTT was added to each well at a final concentration of 0.5 mg/mL and incubated at 37 °C for 4 h. Then, 150 μL of DMSO was added to each well to dissolve the formazan crystals. The absorbance was measured at 570 nm by a microplate reader (ELX800UV, Bio-Tek, Windoski, VT, USA). All measurements were repeated at least three times under the same conditions. Graphpad Prism 8.0 was used to calculate the IC50 values.
Background: Tetrazolium assays rely on reduction of a dye to a coloured formazan, in cell work by metabolically active cells.

For series [2], the system named is human colon cancer cells (HCT-15). Briefly: MTT antiproliferative assay, HCT-15. The series is classed as cell-based. Conditions: for IC50: Homo sapiens, MTT, 72 h, HCT-15. The protocol: as §1, §2
In series [3] the test system is human liver cancer cells (HepG2). Briefly: MTT antiproliferative assay, HepG2. Format: cell-based. The conditions noted are these: Homo sapiens, HepG2, 72 h. The protocol:
as §1, §2

Series [4] concerns human pancreatic cancer cells (BxPC-3). Briefly: MTT antiproliferative assay, BxPC-3. Conditions: Homo sapiens, BXPC-3, 72 h. Format: cell-based. The protocol:
as §1, §2

Series [5] deals with human breast cancer cells (MCF-7). The experiment in a line: MTT antiproliferative assay, MCF-7. The series is classed as cell-based. Conditions: Homo sapiens, MCF7, 72 h. As for the experimental part:
as §1, §2

For series [6], the system named is human umbilical vein endothelial cells (HUVEC). The experiment in a line: MTT antiproliferative assay, HUVEC. The conditions noted are these: 72 h. The series is classed as cell-based. As for the experimental part: as §1, §2
In series [7] the test system is human normal hepatocyte cells (L-02). The experiment in a line: MTT toxicity assay, normal hepatocytes L-02. The conditions noted are these: 72 h, normal hepatocyte L-02 (toxicity), read-out: Antiproliferative Activity (IC50/μM) L-02. Format: cell-based. The protocol: as §1, §2
Series [8] can be described thus: Aqueous solubility determination by HPLC. The conditions noted are these: neutral water. The series is classed as physicochemical. As for the experimental part:
Briefly, each tested compound (10 mg) was dissolved in 10 mL of CH3OH, and the standard solution (0.5 mL) was used to determine the wavelength of maximum absorbance by HPLC. The solution was diluted as necessary, and the solubility was determined by linear regression with R^2 > 0.999. Each tested compound (5 mg) was ultrasound dissolved in 3 mL of pure water for 1 h at room temperature, and the mixture was then […] at 3000 rpm for 15 min. The saturated supernatants were determined by HPLC at the wavelength of the maximum absorption, and the absorbances were obtained. The solubility was calculated according to the standard curve.

For series [9], the system named is HCT-15 cells. Briefly: Flow cytometry Annexin V-FITC/PI apoptosis analysis. Format: cell-based, human. Conditions: HCT-15, TET treatment groups (1.25, 2.5, 5 μM), 48 h. As for the experimental part:
HCT-15 cells were cultured in complete medium in six-well plates for 24 h, and […]. 2.5, 5 μM of 16 was added in triplicate for 48 h incubation. The cells were digested with trypsin without EDTA, washed twice with cold PBS, and resuspended in 500 μL binding buffer. The cell suspension was stained successively with 5 μL Annexin V-FITC and 5 μL PI (Keygen Biotech, Nanjing, China), and cultured for 15 min and 5 min in total dark, respectively. Afterwards, the percentages of apoptotic cells were determined by a flow cytometry. Data were analyzed by FlowJo software (Version 10, FlowJo, LLC, Ashland, OR, USA).

On to `COc1cc(NC(=O)CNC(=O)OC(C)(C)C)c2cc1Oc1ccc(cc1)C[C@H]1c3cc(c(OC)cc3CCN1C)Oc1c(OC)c(OC)cc3c1[C@H](C2)N(C)CC3` [Compound 3, 14-N-(Boc-L-glycine)-tetrandrine], for which the IC50 in [1] turned out to be 2.15 ± 0.17 µM; in [2] it was 2.42 ± 0.06 µM; in series [3], 1.94 ± 0.27 µM; in [4], 2.55 ± 0.03 µM; in [5], 2.91 ± 0.17 µM; in series [6], 1.68 ± 0.21 µM. The IC50 in series [7] came out at 8.59 ± 0.13 µM. Besides, in series [2] (HCT-15 cells, vs TET (IC50 = 6.12 μM)), the “Improvement of antiproliferative activity compared with TET” value is reported as “about 2 fold”. Moreover, the “Increase of aqueous solubility compared to TET” value in series [8] (vs TET) is recorded as “approximately 16 fold”.

The term solubility denotes the concentration that dissolves in the medium under given conditions. A high value points to much dissolved substance. In the case of `COc1ccc2cc1Oc1ccc(cc1)C[C@H]1c3cc(c(OC)cc3CCN1C)Oc1c(OC)c(OC)cc3c1[C@H](C2)N(C)CC3` [TET, tetrandrine], the IC50 was 6.39 ± 0.83 µM in series [1]; 6.12 ± 0.51 µM in series [2]; 3.25 ± 0.11 µM in [3]; 7.6 ± 0.16 µM in series [4]; 3.9 ± 0.47 µM in [5]; 3.62 ± 0.02 µM in series [6]. Besides, in series [7], the IC50 worked out at 16 ± 1.18 µM. The solubility at 1 h in series [8] (pure water, thermodynamic from solid, room temperature, HPLC) was < 30 µg/mL. Moreover, the “Percentage of apoptotic cells” value in series [9] was “lower than 14%”.

For the origin of these results see paper PMC9268013, “Design, Synthesis, and Biological Evaluation of N14-Amino Acid-Substituted Tetrandrine Derivatives as Potential Antitumor Agents against Human Colorectal Cancer” (Molecules, 2022).
